Assay results reported in US12371436B2, “Substituted benzodiazoliums as ENaC inhibitors” (ENTERPRISE THERAPEUTICS LIMITED, priority 2016, dated 2025).

These molecules were tested against T1, ENaC (Homo sapiens, UniProt P37088+P51168+P51170) (assay: Short circuit current assay to determine ENaC blocker potency in human bronchial epithelial cells). Settings: 50% inhibition of total amiloride-sensitive ISC, apical addition, read-out: Averages.ENaC IC50 (nM) Avg.
T1 construct: host or cells: primary human bronchial epithelial cells (HBECs) differentiated at air-liquid interface
T1 sequence (P37088 1-669): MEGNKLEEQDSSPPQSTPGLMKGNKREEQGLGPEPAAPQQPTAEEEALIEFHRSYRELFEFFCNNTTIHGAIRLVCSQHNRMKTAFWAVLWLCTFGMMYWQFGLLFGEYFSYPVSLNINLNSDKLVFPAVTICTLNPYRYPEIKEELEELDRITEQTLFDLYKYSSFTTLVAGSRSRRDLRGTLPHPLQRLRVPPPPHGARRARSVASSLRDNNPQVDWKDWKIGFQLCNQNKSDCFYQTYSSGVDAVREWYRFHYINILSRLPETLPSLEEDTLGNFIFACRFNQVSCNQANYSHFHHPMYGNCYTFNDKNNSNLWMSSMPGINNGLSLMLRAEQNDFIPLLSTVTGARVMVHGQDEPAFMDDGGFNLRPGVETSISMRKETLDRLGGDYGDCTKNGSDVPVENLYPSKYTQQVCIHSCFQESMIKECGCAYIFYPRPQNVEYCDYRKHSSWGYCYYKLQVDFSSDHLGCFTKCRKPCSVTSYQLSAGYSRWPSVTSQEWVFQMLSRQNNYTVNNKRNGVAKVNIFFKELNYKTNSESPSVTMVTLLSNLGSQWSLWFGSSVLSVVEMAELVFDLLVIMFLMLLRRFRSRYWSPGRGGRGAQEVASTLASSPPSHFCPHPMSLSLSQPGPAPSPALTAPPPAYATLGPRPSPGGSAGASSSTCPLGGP
T1 sequence (P51168 1-640): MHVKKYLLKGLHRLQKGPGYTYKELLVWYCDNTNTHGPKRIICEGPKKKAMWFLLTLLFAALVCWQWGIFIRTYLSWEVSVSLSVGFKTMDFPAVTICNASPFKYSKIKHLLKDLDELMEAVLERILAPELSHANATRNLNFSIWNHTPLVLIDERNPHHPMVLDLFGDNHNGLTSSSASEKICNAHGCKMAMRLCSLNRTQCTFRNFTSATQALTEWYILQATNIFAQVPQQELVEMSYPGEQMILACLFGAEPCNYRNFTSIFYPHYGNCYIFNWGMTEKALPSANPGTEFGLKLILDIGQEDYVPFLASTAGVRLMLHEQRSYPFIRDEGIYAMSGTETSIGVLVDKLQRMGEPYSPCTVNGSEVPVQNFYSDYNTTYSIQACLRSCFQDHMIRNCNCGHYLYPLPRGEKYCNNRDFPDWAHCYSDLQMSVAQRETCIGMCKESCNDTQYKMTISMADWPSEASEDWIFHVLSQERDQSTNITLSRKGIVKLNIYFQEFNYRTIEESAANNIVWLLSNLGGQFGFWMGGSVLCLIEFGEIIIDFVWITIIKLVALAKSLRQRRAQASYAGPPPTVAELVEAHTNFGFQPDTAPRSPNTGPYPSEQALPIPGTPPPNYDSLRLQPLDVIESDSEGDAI
T1 sequence (P51170 1-649): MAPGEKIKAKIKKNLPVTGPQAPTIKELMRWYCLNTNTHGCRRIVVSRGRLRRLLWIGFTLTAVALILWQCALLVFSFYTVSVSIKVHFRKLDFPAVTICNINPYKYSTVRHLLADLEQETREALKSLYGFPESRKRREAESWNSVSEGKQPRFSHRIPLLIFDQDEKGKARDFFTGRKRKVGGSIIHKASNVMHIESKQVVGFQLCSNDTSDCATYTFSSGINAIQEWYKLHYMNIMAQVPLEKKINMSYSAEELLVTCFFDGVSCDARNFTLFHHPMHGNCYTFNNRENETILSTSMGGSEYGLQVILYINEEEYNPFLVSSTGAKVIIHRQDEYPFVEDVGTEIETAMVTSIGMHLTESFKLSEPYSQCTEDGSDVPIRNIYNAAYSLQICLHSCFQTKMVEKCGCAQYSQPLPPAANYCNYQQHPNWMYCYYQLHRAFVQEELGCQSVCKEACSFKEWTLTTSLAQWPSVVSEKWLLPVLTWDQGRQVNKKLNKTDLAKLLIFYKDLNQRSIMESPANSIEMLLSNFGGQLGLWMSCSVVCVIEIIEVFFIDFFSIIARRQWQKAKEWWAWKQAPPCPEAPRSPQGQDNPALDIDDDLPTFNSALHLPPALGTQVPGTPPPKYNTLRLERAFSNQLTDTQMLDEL
Type: cell-based
Method: Example 68—Short circuit current assay to determine ENaC blocker potency in human bronchial epithelial cells
Human bronchial epithelial cells (HBECs) (Lonza, UK) were cultured using a modification of the method described by Coote et al, (2008). Cells were seeded into plastic T-75 flasks and grown in Bronchial Epithelial Cell Growth Medium (BEGM) (Lonza, UK) supplemented with bovine pituitary extract (52 ng/mL), hydrocortisone (0.5 μg/mL), human recombinant Epidermal Growth Factor (0.5 ng/mL), epinephrine (0.5 ng/mL), transferrin (10 ng/mL), insulin (5 ng/mL), retinoic acid (0.1 ng/mL), triiodothyronine (6.5 ng/mL), gentamycin (50 μg/mL) and amphotericin-B (50 ng/mL). Medium was changed every 48 hours until cells were 90% confluent. Cells were then passaged and seeded (8.25×10^5 cells/insert) onto polycarbonate Snapwell™ inserts (Costar, UK) in differentiation media containing 50% DMEM in BGEM with the same supplements as above but without triiodothyronine and a final retinoic acid concentration of 50 nM (all-trans retinoic acid; Sigma-Aldrich, UK). Cells were maintained submerged for the first 7 days in culture after which time they were exposed to an apical air interface for the remainder of the culture period. From the first day of establishment of an ALI, HBEC were fed with a DMEM:HAMS F-12 (1:1) media containing 2% Ultroser G (Pall BioSepra, France) with gentamycin (50 μg/mL) and amphotericin B (50 ng/mL). Cells were used for short-circuit current assay between days 14-21 after the establishment of the ALI. At all stages of culture, cells were maintained at 37° C. in 5% CO2 in an air incubator.
Short-Circuit Current (ISC) Measurements
Snapwell inserts were mounted in Costar Vertical Diffusion Chambers (Costar, UK) and were bathed with continuously gassed Ringer solution (5% CO2 in O2; pH 7.4) maintained at 37° C. containing (in mM): 120 NaCl, 25 NaHCO3, 3.3 KH2PO4, 0.8 K2HPO4, 1.2 CaCl2, 1.2 MgCl2 and 10 glucose. The solution osmolarity was always between 280-300 mOsm/kg H2O for all physiological salt solutions used. Cells were voltage clamped to 0 mV (model EVC4000, WPI). Transepithelial resistance (RT) was measured by applying a 2 mV pulse at 30 s intervals and calculating RT by Ohm's law. Data were recorded using a PowerLab workstation (ADlnstruments, UK).
ENaC blocker compounds were added to the apical chamber from a 1000-fold stock solution (prepared in DMSO) to achieve a cumulative concentration response in terms of the inhibition of the basal ISC. At the completion of the concentration response, a supra-maximal concentration of amiloride (10 μM) was added. The concentration of test compound that induced a 50% inhibition of the total amiloride-sensitive ISC (IC50) was calculated using GraphPad Prism v6.05. The results are presented in Table 2, from which it can be seen that the compounds of the present invention have ENaC inhibiting activity.

| IC50 [nM] | Compound |
| --- | --- |
| 15 | CCn1c(CNC(=O)c2nc3cc[nH]c3nc2N)[n+](Cc2ccccc2)c2ccc(C(F)(F)F)cc21 [Example 17, 2-[({3-amino-5H-pyrrolo[2,3-b]pyrazin-2-yl}formamido)methyl]-3-benzyl-1-ethyl-6-(trifluoromethyl)-1H-1,3-benzodiazol-3-ium] |
| 4 | CCn1c(CNC(=O)c2nc3c(C)c[nH]c3nc2N)[n+](CC)c2ccc(Cl)cc21 [Example 20, 2-[({3-amino-7-methyl-5H-pyrrolo[2,3-b]pyrazin-2-yl}formamido)methyl]-6-chloro-1,3-diethyl-1H-1,3-benzodiazol-3-ium] |
| 2 | CCn1c(CNC(=O)c2nc3c(Cl)c[nH]c3nc2N)[n+](CC)c2ccc(Cl)cc21 [Example 21, 2-[({3-amino-7-chloro-5H-pyrrolo[2,3-b]pyrazin-2-yl}formamido)methyl]-6-chloro-1,3-diethyl-1H-1,3-benzodiazol-3-ium] |
| 14 | CCn1c(CNC(=O)c2nc3cc[nH]c3nc2N)[n+](CC)c2ccc(OCCN)cc21 [Example 27, 2-[({3-amino-5H-pyrrolo[2,3-b]pyrazin-2-yl}formamido)methyl]-6-(2-aminoethoxy)-1,3-diethyl-1H-1,3-benzodiazol-3-ium] |
| 7 | CCn1c(CNC(=O)c2nc3cc[nH]c3nc2N)[n+](CC)c2ccc(OCCCN)cc21 [Example 28, 2-[({3-amino-5H-pyrrolo[2,3-b]pyrazin-2-yl}formamido)methyl]-6-(3-aminopropoxy)-1,3-diethyl-1H-1,3-benzodiazol-3-ium] |

The remaining lines, values behind:

| Compound | IC50 [nM] |
| --- | --- |
| Nc1nc2[nH]ccc2nc1C(=O)NCc1n(CC(=O)N2CCCCC2)c2ccccc2[n+]1Cc1ccccc1 [Example 18, 2-[({3-amino-5H-pyrrolo[2,3-b]pyrazin-2-yl}formamido)methyl]-3-benzyl-1-[2-oxo-2-(piperidin-1-yl)ethyl]-1H-1,3-benzodiazol-3-ium] | 5450 |
| CCn1c(CNC(=O)c2nc3cc(C)[nH]c3nc2N)[n+](C)c2ccc(OC)cc21 [Example 19, 2-[({3-amino-6-methyl-5H-pyrrolo[2,3-b]pyrazin-2-yl}formamido)methyl]-1-ethyl-6-methoxy-3-methyl-1H-1,3-benzodiazol-3-ium] | 8 |
| CCn1c(CNC(=O)c2nc3cc[nH]c3nc2N)[n+](CC)c2ccc(OCCNC(=O)OC(C)(C)C)cc21 [Example 22, 2-[({3-amino-5H-pyrrolo[2,3-b]pyrazin-2-yl}formamido)methyl]-6-(2-{[(tert-butoxy)carbonyl]amino}ethoxy)-1,3-diethyl-1H-1,3-benzodiazol-3-ium] | 8 |
| CCn1c(CNC(=O)c2nc3cc[nH]c3nc2N)[n+](CC)c2ccc(OCCCNC(=O)OC(C)(C)C)cc21 [Example 23, 2-[({3-amino-5H-pyrrolo[2,3-b]pyrazin-2-yl}formamido)methyl]-6-(3-{[(tert-butoxy)carbonyl]amino}propoxy)-1,3-diethyl-1H-1,3-benzodiazol-3-ium] | 4 |
| CCn1c(CNC(=O)c2nc3cc[nH]c3nc2N)[n+](CC)c2ccc(CCCNC(=O)OC(C)(C)C)cc21 [Example 24, 2-[({3-amino-5H-pyrrolo[2,3-b]pyrazin-2-yl}formamido)methyl]-6-(3-{[(tert-butoxy)carbonyl]amino}propyl)-1,3-diethyl-1H-1,3-benzodiazol-3-ium] | 6 |
| CCn1c(CNC(=O)c2nc3cc[nH]c3nc2N)[n+](CC)c2ccc(C3CCN(C(=O)OC(C)(C)C)CC3)cc21 [Example 25, 2-[({3-amino-5H-pyrrolo[2,3-b]pyrazin-2-yl}formamido)methyl]-6-{1-[(tert-butoxy)carbonyl]piperidin-4-yl}-1,3-diethyl-1H-1,3-benzodiazol-3-ium] | 2 |
| CCn1c(CNC(=O)c2nc3cc[nH]c3nc2N)[n+](CC)c2ccc(-c3cnn(C4CCN(C(=O)OC(C)(C)C)CC4)c3)cc21 [Example 26, 2-[({3-amino-5H-pyrrolo[2,3-b]pyrazin-2-yl}formamido)methyl]-6-(1-{1-[(tert-butoxy)carbonyl]piperidin-4-yl}-1H-pyrazol-4-yl)-1,3-diethyl-1H-1,3-benzodiazol-3-ium] | 1 |
